Experimental data from patent US12215100B2, “Anticancer compounds” (Pharma Mar, S.A., priority 2018, dated 2025).

How the values were obtained:
Type in all cases: cell-based, human
[1] = test system: A549; assay: SRB colorimetric cytotoxicity assay, A549; conditions: 72 hours treatment, lung carcinoma (NSCLC)
Text: (§1) The aim of this assay is to evaluate the in vitro cytostatic (ability to delay or arrest tumor cell growth) or cytotoxic (ability to kill tumor cells) activity of the samples being tested.
(§2) A colorimetric assay, using sulforhodamine B (SRB) reaction has been adapted to provide a quantitative measurement of cell growth and viability (following the technique described by V. Vichai and K. Kirtikara (2006) Nature Protoc. 1, 1112-1116.)
(§3) This form of assay employs 96-well cell culture microplates. All the cell lines used in this study were obtained from the American Type Culture Collection (ATCC), unless otherwise indicated, and derive from different types of human cancer.
(§4) Cells were maintained in Dulbecco's Modified Eagle Medium (DMEM) (for A549, HT-29 and MDA-MB-231) or RPMI (for PSN-1) supplemented with 10% Fetal Bovine Serum (FBS), 2 mM L-glutamine, 100 U/mL penicillin and 100 U/mL streptomycin at 37° C., 5% CO2 and 98% humidity. For the experiments, cells were harvested from subconfluent cultures using trypsinization and resuspended in fresh medium before counting and plating.
(§5) Cells were seeded in 96 well microtiter plates, at 5×10^3 cells per well in aliquots of 150 μL, and allowed to attach to the plate surface for 18 hours (overnight) in drug free medium. After that, one control (untreated) plate of each cell line was fixed (as described below) and used for time zero reference value. […] After 72 hours treatment, the antitumor effect was measured by using the SRB methodology: Briefly, cells were washed twice with PBS, fixed for 15 min in 1% glutaraldehyde solution at room temperature, rinsed twice in PBS, and stained in 0.4% SRB solution for 30 min at room temperature. Cells were then rinsed several times with 1% acetic acid solution and air-dried at room temperature. SRB was then extracted in 10 mM trizma base solution and the absorbance measured in an automated spectrophotometric plate reader at 490 nm. Effects on cell growth and survival were estimated by applying the NCI algorithm (Boyd M R and Pauli K D. Drug Dev Res. 1995, 34, 91-104).
(§6) Using the mean±SD of triplicates, a dose-response curve was automatically generated using nonlinear regression analysis to a 4-parameter logistic curve. Three reference parameters were calculated (NCI algorithm) by automatic interpolation: GI50=compound concentration that produces 50% cell growth inhibition, as compared to control cultures; TGI=total cell growth inhibition (cytostatic effect), as compared to control cultures, and LC50=compound concentration that produces 50% net cell killing (cytotoxic effect).

[2] = test system: HT29; assay: SRB colorimetric cytotoxicity assay, HT29; conditions: 72 hours treatment, colorectal adenocarcinoma
Text: as §1, §2, §3, §4, §5, §6

[3] = test system: PSN-1; assay: SRB colorimetric cytotoxicity assay, PSN-1; conditions: 72 hours treatment, pancreatic adenocarcinoma
Text: as §1, §2, §3, §4, §5, §6

[4] = test system: MDA-MB-231; assay: SRB colorimetric cytotoxicity assay, MDA-MB-231; conditions: 72 hours treatment, breast adenocarcinoma
Text: as §1, §2, §3, §4, §5, §6

SMILES | GI50 ([1]; Homo sapiens, A549, 72 h) | GI50 ([2]; Homo sapiens, HT-29, 72 h) | GI50 ([3]; Homo sapiens, PSN1, 72 h) | GI50 ([4]; Homo sapiens, MDA-MB-231, 72 h) | GI50 [1] | GI50 [2] | GI50 [3] | GI50 [4]
C=CCOc1cc([C@@H](CCC)NC(=O)[C@]2(C)CSC(/C(C)=N/OCCCN)=N2)oc(=O)c1 (stereo in doubt) [Compound 153] | 3.98 nM | 3.38 nM | 3.98 nM | 4.32 nM | – | – | – | –
C=CCOc1cc([C@@H](CCC)NC(=O)[C@]2(C)CSC(/C(C)=N/OCCCN)=N2)oc(=O)c1 (stereo in doubt) [Compound 154] | – | – | – | – | 4.79 nM | 5.59 nM | 7.78 nM | 6.79 nM
C#CCOc1cc([C@@H](CCC)NC(=O)[C@]2(C)CSC(/C(C)=N/OCCCN)=N2)oc(=O)c1 (stereo in doubt) [Compound 156] | 1.28 nM | 2.43 nM | 2.43 nM | 2.6 nM | – | – | – | –
CCC[C@@H](NC(=O)[C@]1(C)CSC(/C(C)=N/OCCCN)=N1)c1cc(OCC2CC2)cc(=O)o1 (stereo in doubt) [Compound 158] | 5.43 nM | 6.06 nM | 6.27 nM | 12.1 nM | – | – | – | –
CCC[C@@H](NC(=O)[C@]1(C)CSC(/C(C)=N/O)=N1)c1cc(OC)cc(=O)o1 [Compound 1] | 11.5 nM | 14.4 nM | 28.8 nM | 34.1 nM | – | – | – | –
CCC[C@@H](NC(=O)[C@]1(C)CSC(/C(C)=N\O)=N1)c1cc(OC)cc(=O)o1 [Compound 1a] | 144 nM | 152 nM | 341 nM | 204 nM | – | – | – | –
CCC[C@@H](NC(=O)[C@]1(C)CSC(/C(C)=N/OC)=N1)c1cc(OC)cc(=O)o1 [Compound 2] | 253 nM | 212 nM | 329 nM | 430 nM | – | – | – | –
CCC[C@@H](NC(=O)[C@]1(C)CSC(C(C)=O)=N1)c1cc(OC)cc(=O)o1 [Compound 42] | 24600 nM | 8730 nM | 5190 nM | 4640 nM | – | – | – | –
CCC[C@@H](NC(=O)[C@]1(C)CSC(C(C)(OCC)OCC)=N1)c1cc(OCC)cc(=O)o1 [Compound 46] | 2420 nM | 2180 nM | 4620 nM | 1520 nM | – | – | – | –
CCCCCCCOc1cc([C@@H](CCC)NC(=O)[C@]2(C)CSC(C(C)(OCC)OCC)=N2)oc(=O)c1 [Compound 48] | 3430 nM | 2290 nM | 2100 nM | 2290 nM | – | – | – | –
CCCCCCCCCCCCCCCCCOc1cc([C@@H](CCC)NC(=O)[C@]2(C)CSC(C(C)(OCC)OCC)=N2)oc(=O)c1 [Compound 49] | 1340 nM | 932 nM | 1460 nM | 1500 nM | – | – | – | –
C=CCOc1cc([C@@H](CCC)NC(=O)[C@]2(C)CSC(C(C)(OCC)OCC)=N2)oc(=O)c1 [Compound 50] | 643 nM | 514 nM | 814 nM | 536 nM | – | – | – | –
C#CCOc1cc([C@@H](CCC)NC(=O)[C@]2(C)CSC(C(C)(OCC)OCC)=N2)oc(=O)c1 [Compound 51] | 344 nM | 215 nM | 366 nM | 323 nM | – | – | – | –
CCC[C@@H](NC(=O)[C@]1(C)CSC(C(C)(OCC)OCC)=N1)c1cc(OCC2CC2)cc(=O)o1 [Compound 52] | 1270 nM | 1210 nM | 1770 nM | 1290 nM | – | – | – | –
CCCCCCCOc1cc([C@@H](CCC)NC(=O)[C@]2(C)CSC(C(C)=O)=N2)oc(=O)c1 [Compound 61] | 1840 nM | 1400 nM | 1730 nM | 1440 nM | – | – | – | –
CCCCCCCCCCCCCCCCCOc1cc([C@@H](CCC)NC(=O)[C@]2(C)CSC(C(C)=O)=N2)oc(=O)c1 [Compound 62] | 1610 nM | 1100 nM | 1640 nM | 1690 nM | – | – | – | –
C=CCOc1cc([C@@H](CCC)NC(=O)[C@]2(C)CSC(C(C)=O)=N2)oc(=O)c1 [Compound 63] | 815 nM | 510 nM | 408 nM | 484 nM | – | – | – | –
C#CCOc1cc([C@@H](CCC)NC(=O)[C@]2(C)CSC(C(C)=O)=N2)oc(=O)c1 [Compound 64] | 99.9 nM | 61.5 nM | 71.7 nM | 53.8 nM | – | – | – | –
CCC[C@@H](NC(=O)[C@]1(C)CSC(C(C)=O)=N1)c1cc(OCC2CC2)cc(=O)o1 [Compound 65] | 1890 nM | 1080 nM | 1250 nM | 1030 nM | – | – | – | –

SMILES | GI50 ([1]; Homo sapiens, A549, 72 h) | GI50 ([2]; Homo sapiens, HT-29, 72 h) | GI50 ([3]; Homo sapiens, PSN1, 72 h) | GI50 ([4]; Homo sapiens, MDA-MB-231, 72 h) | GI50 [1] | GI50 [2] | GI50 [3] | GI50 [4]
C=Cc1cc([C@@H](CCC)NC(=O)[C@]2(C)CSC(C(C)=O)=N2)oc(=O)c1 [Compound 68] | 11000 nM | 9100 nM | 4690 nM | 6620 nM | – | – | – | –
COc1cc([C@@H](CC(C)C)NC(=O)[C@]2(C)CSC(/C(C)=N/O)=N2)oc(=O)c1 [Compound 69] | 2200 nM | 1590 nM | 1520 nM | 1620 nM | – | – | – | –
COc1cc([C@@H](CC(C)C)NC(=O)[C@]2(C)CSC(/C(C)=N\O)=N2)oc(=O)c1 [Compound 69a] | 5060 nM | 3790 nM | 6320 nM | 4550 nM | – | – | – | –
CCC[C@@H](NC(=O)[C@]1(C)CSC(/C(C)=N/O)=N1)c1cc(OCC)cc(=O)o1 [Compound 70] | 14.4 nM | 14.9 nM | 14.9 nM | 23.8 nM | – | – | – | –
CCCCOc1cc([C@@H](CCC)NC(=O)[C@]2(C)CSC(/C(C)=N/O)=N2)oc(=O)c1 [Compound 71] | 7.08 nM | 7.56 nM | 10.4 nM | 14.4 nM | – | – | – | –
CCCCOc1cc([C@@H](CCC)NC(=O)[C@]2(C)CSC(/C(C)=N\O)=N2)oc(=O)c1 [Compound 71a] | 16.5 nM | 17 nM | 30.7 nM | 35.4 nM | – | – | – | –
CCCCCCCOc1cc([C@@H](CCC)NC(=O)[C@]2(C)CSC(/C(C)=N/O)=N2)oc(=O)c1 [Compound 72] | 25.8 nM | 30.1 nM | 21.5 nM | 30.1 nM | – | – | – | –
CCCCCCCOc1cc([C@@H](CCC)NC(=O)[C@]2(C)CSC(/C(C)=N\O)=N2)oc(=O)c1 [Compound 72a] | 110 nM | 183 nM | 125 nM | 103 nM | – | – | – | –
CCCCCCCCCCCCCCCCCOc1cc([C@@H](CCC)NC(=O)[C@]2(C)CSC(/C(C)=N/O)=N2)oc(=O)c1 [Compound 73] | 380 nM | 396 nM | 347 nM | 330 nM | – | – | – | –
CCCCCCCCCCCCCCCCCOc1cc([C@@H](CCC)NC(=O)[C@]2(C)CSC(/C(C)=N\O)=N2)oc(=O)c1 [Compound 73a] | 64.4 nM | 62.7 nM | 59.4 nM | 66 nM | – | – | – | –
C=CCOc1cc([C@@H](CCC)NC(=O)[C@]2(C)CSC(/C(C)=N/O)=N2)oc(=O)c1 [Compound 74] | 4.17 nM | 2.94 nM | 3.19 nM | 4.91 nM | – | – | – | –
C=CCOc1cc([C@@H](CCC)NC(=O)[C@]2(C)CSC(/C(C)=N\O)=N2)oc(=O)c1 [Compound 74a] | 8.1 nM | 7.61 nM | 12.5 nM | 9.82 nM | – | – | – | –
C#CCOc1cc([C@@H](CCC)NC(=O)[C@]2(C)CSC(/C(C)=N/O)=N2)oc(=O)c1 [Compound 75] | 1.01 nM | 0.962 nM | 1.18 nM | 1.38 nM | – | – | – | –
C#CCOc1cc([C@@H](CCC)NC(=O)[C@]2(C)CSC(/C(C)=N\O)=N2)oc(=O)c1 [Compound 75a] | 2.12 nM | 1.18 nM | 2 nM | 2.71 nM | – | – | – | –
CCC[C@@H](NC(=O)[C@]1(C)CSC(/C(C)=N/O)=N1)c1cc(OCC2CC2)cc(=O)o1 [Compound 76] | 3.56 nM | 3.8 nM | 3.08 nM | 3.8 nM | – | – | – | –
CCC[C@@H](NC(=O)[C@]1(C)CSC(/C(C)=N\O)=N1)c1cc(OCC2CC2)cc(=O)o1 [Compound 76a] | 3.8 nM | 4.27 nM | 4.51 nM | 4.51 nM | – | – | – | –
CCC[C@@H](NC(=O)[C@]1(C)CSC(/C(C)=N/O)=N1)c1cc(N(CC)CC)cc(=O)o1 [Compound 77] | 2150 nM | 1180 nM | 2370 nM | 1960 nM | – | – | – | –
CCC[C@@H](NC(=O)[C@]1(C)CSC(/C(C)=N/O)=N1)c1cc(C)cc(=O)o1 [Compound 78] | 24.9 nM | 43.8 nM | 32.8 nM | 43.8 nM | – | – | – | –
